Article doi:10.1101/679118v2 (biorxiv, 2019)

System: E. histolytica
Assay: microbe, parasite or virus in culture
Design: species or system Entamoeba histolytica HM-1:IMSS trophozoites
Settings: Entamoeba histolytica, 24 h, read-out: EC50 E. histolytica

| SMILES | EC50 [µM] |
| --- | --- |
| COc1cc(NS(C)(=O)=O)ccc1Nc1c2ccccc2nc2ccccc12 [Amsacrine] | 80 |
| C[C@H]([C@H](C)N1CC(=O)NC(=O)C1)N1CC(=O)NC(=O)C1 [ICRF 193] | 15 |
| COc1cc([C@@H]2c3cc4c(cc3[C@@H](O[C@@H]3O[C@@H]5CO[C@@H](C)O[C@H]5[C@H](O)[C@H]3O)[C@H]3COC(=O)[C@H]23)OCO4)cc(OC)c1O [etoposide] | 200 |

Second part, the compound after the results:

| EC50 [µM] | SMILES |
| --- | --- |
| 270 | NC1CCN(c2c(F)cc3c(=O)c(C(=O)O)cn(C4CC4)c3c2Cl)C1 (centres unmarked) [Clinafloxacin] |
| 250 | O=C(O)c1cn(C2CC2)c2cc(N3CCNCC3)c(F)cc2c1=O [ciprofloxacin] |
